Here are results for three compounds from patent US11578092B2, “Compound for preventing or treating neurodegenerative disease and application thereof” (Shanghai Pharmaceuticals Holding Co., Ltd., priority 2018, dated 2023).

Assay [1] relates to APP/PS1 transgenic male mice (AD mice). The assay can be described thus: Morris water maze test in AD mice. Format: in vivo. Particulars: 50 mg/kg daily intragastric, 90 days; for learning and memory abilities of AD mice after administration: Morris water maze. The protocol: Twenty 5-6-month-old APP/PS1 transgenic male mice (AD mice) were selected and divided into a model group and a polysaccharide administration group according to the random number table method. PL402 was administered daily by intragastric administration (50 mg/kg), and 10 non-transgenic mice were used in a negative control group (without administration). After 90 days of consecutive administration, Morris water maze behavior test was used to detect the effect of PL402 on the learning and cognitive functions of APP/PS1 mice.
In this experiment, a classic Morris water maze test procedure was used, which includes a place navigation test and a space exploration test. The duration of the experiment was 7 days in total, and the space exploration test was introduced at Days 4 and 7.
The selection of animals and the “Morris water maze experiment” was performed as described in Example 3, to detect the effect of PL404 on the animal learning and memory abilities.

The subject of the next assay is mouse BV-2 cells. The assay is described as follows: Expression of inflammatory factors in LPS-stimulated BV-2 cells (QPCR). The format is cell-based. Particulars: LPS 300 ng/ml, compound 10-300 μM, 24 hours. Here is the method: Neuroinflammation in the brain of AD is one of the causes of cognitive decline. Microglia are key cells that mediate neuroinflammation. The inventors studied whether PL402 is effective in inhibiting neuroinflammation by detecting the expression of inflammatory factors on mouse BV-2 cells.
BV-2 cells culture and stimulation: BV-2 cells were cultured in DMEM, plated in a 24-well plate and cultured for 24 hours. Then PL402 (0, 10, 30, 100, or 300 μM) and LPS (300 ng/ml) were added, and then incubated for 24 hours. RNA was extracted with Trizol, and the expression of related inflammatory factors was detected by QPCR.

Assay [2] has as its system neuroblastoma cells SK—N—SH cells. The assay can be described thus: Total Aβ level in supernatant of SK-N-SH cells (ELISA). Format: cell-based. The note with it: 24 hours. Here is the method:
Aβ is the main pathogenic protein of AD. The inventors investigated whether PL402 has an effect on inhibiting Aβ production by detecting the level of Aβ in neuroblastoma cells SK—N—SH cells (which can secrete Aβ).
Culture of SK—N—SH and detection of Aβ: SK—N—SH cells were cultured in DMEM, plated in a 24-well plate and cultured for 24 hours. PL402 (0, 10, 30, 100, or 300 μM) was added, and then incubated for 24 hours. The supernatant was collected and the total Aβ protein level was detected by ELISA.

Assay [3] relates to human neural progenitor cell (differentiated by humanized iPSC). The assay is described as follows: EdU incorporation, proliferation of human neural progenitor cells. The note with it: dosage 0, 1, 3, 10, 30 or 100 μM, vs untreated control. Format: cell-based. Here is the method:
The inventors investigated whether PL404 has the effect on promoting proliferation by detecting the EdU incorporation of a human neural progenitor cell (differentiated by humanized iPSC). The dosage of PL404 was 0, 1, 3, 10, 30, or 100 μM.
The method similar to that in Example 7 was used, except that compound PL404 was replaced by PL405, and by detecting the EdU incorporation of human neural progenitor cells, whether PL405 has the effect on promoting proliferation was investigated.

Regarding `COc1cc(/C=C/C(=O)O[C@@H]2OC(C)[C@H](O[C@@H]3OC(C)[C@H](O)C(O)C3O)C(O)C2O)ccc1O` (stereo partly drawn) [PL402], the “learning and memory abilities of AD mice after administration” value in assay [1] is on record as “significantly improved”. In addition, the “escape latency (latency to reach the platform) compared with the model group” value in assay [1] (place navigation test, 50 mg/kg) is given as “statistically significant decrease”. In the assay on mouse BV-2 cells, the “expression of inflammatory factor IL-1β” value is “significantly inhibit” and the “expression of inflammatory factor IL-6” value is “significantly inhibit”. The “production of Aβ (total Aβ protein level)” value in assay [2] (compound 10-300 μM, ELISA of supernatant) is “significantly inhibit”. Besides, the “concentration at which the inhibition of Aβ production is most desirable” value in assay [2] (tested 0, 10, 30, 100, 300 μM) worked out at 100 µM.

As to `COc1cc(/C=C/C(=O)OC2C(C)OC(OC3C(C)OC(O)C4OC(C)(C)OC34)C(O)C2O)ccc1O` (stereo not drawn) [PL404], the “learning and memory abilities of AD mice after administration” value in assay [1] is on record as “significantly improved”. In addition, the “increase of human neural progenitor cell proliferation level compared with the control group” value in assay [3] is reported as “about 30%”.

With `COc1cc(/C=C/C(=O)OC2C(C)OC(OC3C(C)OC(O)C(O)C3O)C(O)C2O)ccc1O` (stereo not drawn) [PL405], the “increase of human neural progenitor cell proliferation level compared with the control group” value in assay [3] is recorded as “about 60%”.
